Laboratory results taken from patent publication US9650674B2, “Nucleic acid probes and methods of using the same” (Board of Trustees University of Arkansas, priority 2012, dated 2017).
One block for each molecule: values may come before it. {Cy5.5} = Cy5.5 near-infrared fluorophore label at the ends

Tests used:
[1] = molecular target: T1, DNase I (Homo sapiens, UniProt P24855); experiment: DNase I endonuclease activity measured with AB259.3 probe in presence of inhibitors; assay type: biochemical; settings: 1 μg/ml DNase I; EDTA 200 μM; FIG. 2D
T1 construct: purchased Sigma (St. Louis, Mo.)
T1 sequence (P24855 23-282): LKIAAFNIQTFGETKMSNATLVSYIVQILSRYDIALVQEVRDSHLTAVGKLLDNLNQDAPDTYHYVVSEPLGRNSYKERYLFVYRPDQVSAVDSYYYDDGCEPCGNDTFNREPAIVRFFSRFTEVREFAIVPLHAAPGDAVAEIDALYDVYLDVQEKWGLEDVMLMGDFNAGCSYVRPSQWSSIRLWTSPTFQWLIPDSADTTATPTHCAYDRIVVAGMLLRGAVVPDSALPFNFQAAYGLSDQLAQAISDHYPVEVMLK
Description: (§1) To detect specificity of the assay to DNase I that is a Ca/Mg-dependent endonuclease, AB259.3 probe was tested with 1 μg/ml DNase I in the presence of Ca++ and Mg++ (EAA buffer), in absence of the cations (deionized water), or in excess of EDTA (200 μM). […] Finally, it was tested whether AB259.3 probe will detect inhibition of DNase I activity by DNase I inhibitors such as ZnCl2 and Zn-diisopropyl salicylate (Zn-DIPS).
(§2) All cell-free experiments were performed using the Bio-Tek Synergy 5 fluorescent plate reader. Before experiments, optimal excitation and emission wavelengths were determined. For this, excitation and emission were scanned in the ranges of 600-680 nm and 690-705 nm, respectively. The optimal excitation/emission was determined to be 665/703 nm. All kinetic and endpoint measurements were done in a total volume of 100 μl at 37° C. Unless stated otherwise, DNA substrate was used in final concentration 0.5 μM reconstituted in endonuclease activity assay (EAA) buffer (2 mM CaCl2, 5 mM MgCl2, 10 mM Tris-HCl, pH 7.4) in a 96-well plate. After measurement of starting fluorescence, DNase I or tested material (diluted 1:20 urine or 1:100 serum) were added to the reconstituted probe, rapidly mixed and fluorescence was monitored for up to 60 min with 30-sec intervals. In some instances, EDTA (final concentration 200 μM) or NaOH (50 mM) was added to terminate the reaction. For the experiments that involved assessment of fluorescence after DNA denaturing, probes were tested in Cepheid real-time PCR system using Cy5 setting (Sunnyvale, Calif.).

[2] = system: NRK-52E cells; experiment: Intracellular endonuclease activity in cultured cells, time-lapse microscopy; assay type: cell-based, rat; settings: 25 μM cisplatin or 50 μM camptothecin for 8 hours; FIGS. 4B and 4C
Description: To test whether AB259.3 probe may be delivered intracellularly and thus be used as an indicator of endonuclease activity in live cells, NRK-52E cells were transfected with of AB259.3/Lipofectamine LTX complexes and imaged by time-lapse epifluorescence microscopy every 10 min for 8 hours. A 2.5-3 times increased fluorescence reached plateau in 1 hour after transfection and the cells retained fluorescent dye for the duration of experiment (FIG. 4A). To induce activity of endonucleases, cells were treated with cisplatin or camptothecin and imaged by time-lapse microscopy for Cy5.5 fluorescence. […] Therefore, it was concluded that AB259.3 can be delivered and used for intracellular monitoring of endonuclease activity in live cells. To further determine whether AB259.3 probe can be used in other cell lines, several of them were tested (FIG. 4D). […] It was then determined whether the probe without the loop would be consumed by NRK-52E cells equally to the original loop probe. […] Finally, PCR was used to determine whether the DNA part (as opposed to the fluorophores) of the probes enters the cells in vivo and in vitro.
Rat proximal tubular epithelial NRK-52E cells were used to test the ability of AB259.3 probe to measure endonuclease activity. The cells were seeded in a 24-well plate at 50,000 cells per well in complete DMEM medium supplemented with 10% fetal bovine serum. Cells were transfected with the AB259.3 probe using Lipofectamin LTX and then subjected to spinning disk confocal fluorescent time-lapse microscopy in 628/40-692/40 spectrum every 10 min for 8 hours using Olympus IX-81 image system equipped with Hamamatsu ORCA-ER camera and LiveCell microenvironmental control chamber (Pathology Devices Inc., Westminster, Md.). In separate experiment, cells were treated with either 25 μM cisplatin or 50 μM camptothecin for 8 hours, followed by 1-hour transfection with AB259.3 probe and 8-hour time-lapse imaging session with 10-min intervals using the same microscopy system.

[3] = system: wild-type (WT) mouse kidney cryosections; experiment: Endonuclease activity ex vivo in kidney cryosections; settings: FIG. 5C
Description: Next it was examined whether AB259.3 probe can be used for measurement of endonuclease activity in tissue sections. Kidneys were used because they are known for high activity of DNase I (Ca/Mg-dependent endonuclease). Freshly prepared 10 μm thick cryosections of wild-type (WT) mouse kidney were exposed with 5 μM AB259.3 probe in presence of EAA buffer at 37° C. and time-lapse imaged for 10 min with 1-min intervals.
Specimens of kidney, liver, spleen and testis tissues were removed from euthanized mice, immersed in OCT medium, rapidly frozen by Fisher Freeze-it and kept on dry ice for no longer than 1 hour prior slicing. Tissue cryosections (8-μm thick) were prepared using the Microm HM 505E cryotome, placed to the Fisher Plus slides and immediately exposed with 0.5 μM AB259.3 probe diluted in EAA buffer. In control samples, applied probe contained EAA buffer supplemented with 200 μM EDTA. Images were taken in 628/40-692/40 spectrum every 30 sec for 10 min in 10 random XY coordinates. Three sections from each specimen were analyzed separately. Maximal velocity of increasing fluorescence was averaged for each section.

[4] = Alkaline denaturing of probes, kinetic fluorescence; assay type: physicochemical; settings: alkaline buffer
Description: Lastly, the probes' integrity was tested by alkaline denaturing. The probes were treated with alkaline buffer and kinetic detection of the fluorescence was performed. […] AB259.1, AB259.3 and AB259.5 gained 40%, 81%, and 85% of fluorescence, respectively.
as §2

[5] = Heat denaturing and reannealing of hairpin probes (probe integrity); assay type: physicochemical; settings: ROX internal reference; above background; FIG. 1C
Description: To ensure the integrity of the DNA probes, it was tested whether a heat denaturing of the hairpins would cause an increase in fluorescence, and if a reannealing would reverse it. To compensate for thermal change of fluorophore's emission, the ROX fluorophore was added to tested probes as an internal reference.
as §2

[6] = Baseline fluorescence of hairpin DNA probes; assay type: physicochemical; settings: FIG. 1B
Description: It was impossible to determine if the background fluorescence was attributed to the probe or it originated from a partial degradation of the probe. Consequently, the NIRF probes were designed as hairpins to allow testing the integrity of DNA by its denaturing followed by reannealing. The use of hairpin also allows easy measurement of the maximum fluorescence of the probe. The distance between two fluorophores varied by changing of protruding DNA strand length from +0 (AB259.1 probe) to +5 (AB259.3 probe) or to +10 (AB259.5 probe) as shown in FIG. 1A. The baseline fluorescence of probe AB259.1 was 30% higher than negative control without a probe (FIG. 1B).
as §2

[7] = molecular target: T1, DNase I; experiment: Kinetic fluorescence of probes exposed to DNase I in vitro; assay type: biochemical; settings: probe 0.5 μM, DNase I 1 μg/ml; for gain of fluorescence compared to baseline: twenty min into the reaction, FIG. 2B
Description: It was hypothesized that exposure of the probes to endonucleases would lead to DNA cleavage and dissociation of protruded strand from the hairpin (FIG. 2A). To assess which of the proposed probes is the best to measure endonuclease activity, the probes (0.5 μM) were exposed with recombinant human DNase I (1 μg/ml) and the kinetic fluorescence curves were recorded. Twenty min into the reaction, AB259.1, AB259.3 and AB259.5 gained 1.75-, 2.6- and 1.62-fold fluorescence, respectively, compared to the baseline (FIG. 2B). At 20-25 min, AB259.1 and AB259.3 reached the plateaus. […] Therefore, AB259.3 was chosen for further experiments.
as §1, §2

[8] = system: WT and DNase I KO mice; experiment: Intravital imaging of endonuclease activity in kidneys; settings: 5 μl DNase I (0.1 mg/ml) subcapsular, left kidney, then AB259.3 50 nmol/kg i.v.; FIGS. 7F and 7G
Description: At the next step, WT and DNase I KO mice were anesthetized and intravenously administered with 50 nmol/kg of AB259.3 probe followed by intravital imaging using Xenogen-IVIS.
To additionally confirm preferential accumulation and processing of AB259.3 probe in kidneys, separate set of mice was deeply anesthetized and subjected to abdominal incision and real-time intravital visualization of left kidney while performing intravenous injection of AB259.3 probe. […] For this, DNase I KO animals were subjected to open surgery that was used to administer 5 μl DNase I (0.1 mg/ml) to subcapsular space of upper ventral zone of left kidney. To control effect of DNase I, additional WT and DNase I KO mice were injected with same volume of the vehicle. Immediately after injection, mice were injected with 50 nmol/kg of AB259.3 probe intravenously and then imaged in a Xenogen-IVIS.
Male DNase I KO mice and their WT counterparts at the age 8-10 weeks were used for all experiments. All procedures with mice were performed under general anesthesia with 50 mg/kg ketamine. For subcutaneous administration, mice were injected with 10 μl of 0.1 μM AB259.3 in the dorsal subcutaneous site. For systemic visualization, AB259.3 was injected intravenously at 50 nmol/kg in tail vein.
Imaging of live and euthanized mice or their isolated organs were performed using Xenogen IVIS Image System 200 (Caliper Life Sciences, Hopkinton, Mass.) equipped with Living Image® Software.

Molecule: [Cl-].[Cl-].[Zn+2] [ZnCl2, zinc chloride]
effect on DNase I activity detected by AB259.3 fluorescence [1]: suppressed

effect on DNase I activity detected by AB259.3 fluorescence [1]: suppressed
Molecule: CC(C)c1cc(C(=O)O)c([O-])c(C(C)C)c1.CC(C)c1cc(C(=O)O)c([O-])c(C(C)C)c1.[Zn+2] [Zn-DIPS, zinc-diisopropyl salicylate]

Molecule: N.N.[Cl][Pt][Cl] [cisplatin, reference compound]
induction of endonuclease activity (Cy5.5 fluorescence of AB259.3 in treated cells) [2]: significant increase of fluorescence

effect on DNase I activity detected by AB259.3 fluorescence [1]: inhibited
Molecule: O=C(O)CN(CCN(CC(=O)O)CC(=O)O)CC(=O)O [EDTA, reference compound]
effect of EDTA on fluorescence increase in cryosections [3]: the increase of fluorescence was prevented

Molecule: CC[C@@]1(O)C(=O)OCc2c1cc1n(c2=O)Cc2cc3ccccc3nc2-1 [camptothecin, reference compound]
induction of endonuclease activity (Cy5.5 fluorescence of AB259.3 in treated cells) [2]: significant increase of fluorescence

Molecule: [Cy5.5]AACACTCCGATGAGTGTA[Cy5.5] (DNA, 5' {Cy5.5}, 3' {Cy5.5}, backbone not given here; hairpin DNA probe) [AB259.1, hairpin DNA probe with Cy5.5 at both ends, protruding strand +0]
gain of fluorescence on alkaline denaturing [4]: 40% | gain of fluorescence on heat denaturing [5]: 2.7 times | baseline fluorescence higher than negative control without a probe [6]: 30% | gain of fluorescence compared to baseline [7]: 1.75 fold

Molecule: [Cy5.5]AACACTCCGATGAGTGTAGAATGTACGAGT[Cy5.5] (DNA, 5' {Cy5.5}, 3' {Cy5.5}, backbone not given here; hairpin DNA probe) [AB259.5, hairpin DNA probe with Cy5.5 at both ends, protruding strand +10]
gain of fluorescence on alkaline denaturing [4]: 85% | gain of fluorescence on heat denaturing [5]: 1.8 times | baseline fluorescence (in words) ([6]; correlated with length of protruded DNA end): much higher levels of the baseline fluorescence | behaviour of fluorescence at 20-25 min (in words) [7]: became variable and did not yield reliable gain of fluorescence thereafter | gain of fluorescence compared to baseline [7]: 1.62 fold

B1: DNase I: recombinant DNase I delivered to the kidneys of DNase I KO mice (protein, UniProt P24855 23-282, looked up)
Deoxyribonuclease-1: LKIAAFNIQTFGETKMSNATLVSYIVQILSRYDIALVQEVRDSHLTAVGKLLDNLNQDAPDTYHYVVSEPLGRNSYKERYLFVYRPDQVSAVDSYYYDDGCEPCGNDTFNREPAIVRFFSRFTEVREFAIVPLHAAPGDAVAEIDALYDVYLDVQEKWGLEDVMLMGDFNAGCSYVRPSQWSSIRLWTSPTFQWLIPDSADTTATPTHCAYDRIVVAGMLLRGAVVPDSALPFNFQAAYGLSDQLAQAISDHYPVEVMLK
kidney Cy5.5 fluorescence of DNase I KO mice after subcapsular DNase I [8]: Cy5.5 fluorescence comparable to WT mice
